Laboratory results: publication PMC6997888, “Salicylic Acid Targets Protein Phosphatase 2A to Attenuate Growth in Plants” (Current Biology, 2020)

Legend:
PP2AA1 = molecular target: T1, PP2AA1 (Arabidopsis thaliana, UniProt Q38845); experiment: SPR, steady state; SA-f immobilized on CM5 chip, His-PP2AA1 flowed over; type: binding
T1 construct: recombinant His-PP2AA1 (pET28a, coding region)
T1 sequence (Q38845 1-588): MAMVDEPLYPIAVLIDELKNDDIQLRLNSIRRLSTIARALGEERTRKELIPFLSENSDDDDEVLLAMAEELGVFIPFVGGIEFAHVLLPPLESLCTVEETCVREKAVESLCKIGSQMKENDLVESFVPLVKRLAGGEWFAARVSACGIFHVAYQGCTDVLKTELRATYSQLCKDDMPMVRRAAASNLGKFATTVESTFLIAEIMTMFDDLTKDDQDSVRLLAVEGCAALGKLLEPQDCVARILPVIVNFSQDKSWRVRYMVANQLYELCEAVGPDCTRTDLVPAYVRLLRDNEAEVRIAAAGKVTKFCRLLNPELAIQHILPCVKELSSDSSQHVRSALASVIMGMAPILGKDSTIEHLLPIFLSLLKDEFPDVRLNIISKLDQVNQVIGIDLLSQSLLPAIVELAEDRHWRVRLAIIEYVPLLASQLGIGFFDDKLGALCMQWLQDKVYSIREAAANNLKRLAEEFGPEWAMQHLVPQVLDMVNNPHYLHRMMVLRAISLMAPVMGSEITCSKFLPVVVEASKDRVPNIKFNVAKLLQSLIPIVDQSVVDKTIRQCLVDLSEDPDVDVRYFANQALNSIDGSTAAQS
Source text: SPR, steady state; SA-f immobilized on CM5 chip, His-PP2AA1 flowed over on PP2AA1 | An active synthetic SA analog (SA-f) was immobilized on a CM-5 sensor chip, and different concentrations of His-PP2AA1 were applied

PP2AA3 = molecular target: T2, PP2AA3 (Arabidopsis thaliana, UniProt Q38951); experiment: SPR, steady state; SA-f immobilized on CM5 chip, His-PP2AA3 flowed over; type: binding
T2 construct: recombinant His-PP2AA3 (pET28a, coding region)
T2 sequence (Q38951 1-587): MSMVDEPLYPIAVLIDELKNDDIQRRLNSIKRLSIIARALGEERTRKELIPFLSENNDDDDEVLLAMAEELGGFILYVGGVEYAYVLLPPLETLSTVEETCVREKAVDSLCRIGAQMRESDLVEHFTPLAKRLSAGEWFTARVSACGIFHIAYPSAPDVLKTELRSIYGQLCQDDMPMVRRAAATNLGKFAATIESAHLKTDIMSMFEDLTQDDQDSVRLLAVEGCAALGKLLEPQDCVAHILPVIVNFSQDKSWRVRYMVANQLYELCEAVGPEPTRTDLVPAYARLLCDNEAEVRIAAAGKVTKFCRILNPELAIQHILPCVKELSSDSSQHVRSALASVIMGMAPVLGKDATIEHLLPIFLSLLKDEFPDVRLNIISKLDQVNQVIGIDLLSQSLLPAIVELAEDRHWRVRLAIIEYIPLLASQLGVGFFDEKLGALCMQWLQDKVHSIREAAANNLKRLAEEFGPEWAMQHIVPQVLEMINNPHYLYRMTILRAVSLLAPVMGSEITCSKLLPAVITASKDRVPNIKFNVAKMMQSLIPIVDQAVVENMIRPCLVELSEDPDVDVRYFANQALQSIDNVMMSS
Source text: SPR, steady state; SA-f immobilized on CM5 chip, His-PP2AA3 flowed over on PP2AA3 | The same sensor chip as above was used, and different concentrations of His-PP2AA3 were applied.

Kd (PP2AA1): 3620 nM | Kd (PP2AA3): 1920 nM
SMILES: NCCCCCOc1ccc(O)c(C(=O)O)c1 [SA-f, 5-((5-aminopentyl)oxy)-2-hydroxybenzoic acid]
